The source of these data is article PMC11878344 (Angewandte Chemie (International Ed. in English), 2025).

One series addresses T1, human MAGL (Homo sapiens, UniProt Q99685).
T1 sequence (Q99685 1-303): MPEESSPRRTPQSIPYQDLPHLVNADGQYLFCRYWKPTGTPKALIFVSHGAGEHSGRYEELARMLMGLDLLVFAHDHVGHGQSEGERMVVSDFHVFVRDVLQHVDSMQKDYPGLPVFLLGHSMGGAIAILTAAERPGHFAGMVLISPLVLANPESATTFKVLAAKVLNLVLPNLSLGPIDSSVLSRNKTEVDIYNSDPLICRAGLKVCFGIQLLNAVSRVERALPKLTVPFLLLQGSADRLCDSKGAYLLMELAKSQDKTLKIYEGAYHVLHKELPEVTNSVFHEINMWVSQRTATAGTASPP
The series can be described thus: In vitro MAGL inhibition assay (2-AG hydrolysis followed by mass spectrometry). The series is classed as biochemical. Here is the method: (§1) 4. Experimental Details of Biochemical Assays and Crystal Structure
(§2) In Vitro MAGL Inhibition Assay
(§3) Compounds were profiled for MAGL inhibitory activity by determining the enzymatic activity by following the hydrolysis of the natural substrate 2-arachidonoylglycerol (2-AG), resulting in arachidonic acid, which can be followed by mass spectrometry. The 2-AG assay was carried out in 384 well assay plates (PP, Greiner Cat# 784201) in a total volume of 20 µL. Compound dilutions were made in 100% DMSO (VWR Chemicals 23500.297) in a polypropylene plate in 3-fold dilution steps to give a final concentration range in the assay from 12.5 µM to 0.8 pM. 0.25µL compound dilutions (100% DMSO) were added to 9 µL MAGL in assay buffer (50 mM TRIS (GIBCO, 15567-027), 1 mM EDTA (Fluka, 03690-100 mL), 0.01% (v/v) Tween. After shaking, the plate was incubated for 15 min at RT. To start the reaction, 10 µL 2-arachidonoylglycerol in assay buffer was added. The final concentrations in the assay were 50 pM MAGL and 8 µM 2-arachidonoylglyerol. After shaking and 30 min incubation at RT, the reaction was quenched by the addition of 40µL of ACN containing 4 µM of d8-arachidonic acid. The amount of arachidonic acid was traced by an online SPE system (Agilent Rapidfire) coupled to a triple quadrupole mass spectrometer (Agilent 6460). A C18 SPE cartridge (G9205A) was used in an ACN/water liquid setup. The mass spectrometer was operated in negative electrospray mode following the mass transitions 303.1 → 259.1 for arachidonic acid and 311.1 → 267.0 for d8-arachidonic acid. The activity of the compounds was calculated based on the ratio of intensities [arachidonic acid / d8- […]
(§4) This assay was performed as first described before.[39] […]

Another series has as its target T2, mouse MAGL (Mus musculus, UniProt O35678).
T2 sequence (O35678 1-303): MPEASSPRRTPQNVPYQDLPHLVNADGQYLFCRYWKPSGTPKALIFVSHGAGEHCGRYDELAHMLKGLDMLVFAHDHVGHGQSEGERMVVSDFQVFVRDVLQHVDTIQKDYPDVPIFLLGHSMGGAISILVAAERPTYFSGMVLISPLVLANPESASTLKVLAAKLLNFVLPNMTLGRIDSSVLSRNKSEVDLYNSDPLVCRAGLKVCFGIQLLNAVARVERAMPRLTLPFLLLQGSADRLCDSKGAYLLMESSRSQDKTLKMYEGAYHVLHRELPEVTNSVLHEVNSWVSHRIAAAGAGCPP
The description is as above. The series is classed as biochemical. Here is the method:
as §1, §2, §3, §4

Series [1] in a line: Fluorescence excitation/absorption and emission maxima. Format: physicochemical. Particulars: PBS pH 7.4. The source says:
Figure S8. Fluorescence excitation and emission spectra of the utilized fluorescent reporters in PBS pH 7.4. Spectra l differences between probes carrying the same fluorophore were […]
Table S6. Fluorescence excitation, emission maxima, and Stokes-shift in PBS pH 7.4 for the used fluorophores, respectively. difference s between probes with the same fluorophore were […]
λmax Excitation [nm] λmax Emission [nm] Stokes-shift [nm]
(1 picture or pasted object on this page, not shown here)

For series [2], the target named is T3, NanoLuc luciferase MAGL fusion protein in HEK293A cells (Homo sapiens, UniProt Q99685).
T3 construct: expressed in transfected cells
T3 sequence (Q99685 1-303): T1 sequence (Q99685 1-303)
The series can be described thus: Cellular MAGL NanoBRET target engagement assay. Format: cell-based. The settings on record: Table 2; mean of three independent measurements ± SD; read-out: HEK 293 nanoBRET IC50±SD. Here is the method:
We, therefore, confirmed cellular MAGL target engagement in a nanoBRET assay using live HEK293 cells.[39] […] To overcome the low cellular potency of 4, we exploited the modular construction principle to modulate unfavorable physicochemical properties and investigated less polar, privileged head groups[23, 33, 40] (Supporting Information Table S4). […]
This assay was performed as first described before.[39]
Compounds were profiled by a novel cellular MAGL NanoBRET™ Target Engagement assay, which measures the apparent affinity of test compounds by competitive displacement of a Roche-developed Tracer (WO2021058443, Example 21)[21], reversibly bound to a NanoLuc® luciferase MAGL fusion protein in cells.
A HEK293A stable cell line expressing NanoLuc_MAGL was established at Roche and assigned as HEK293A_NanoLuc_MAGL clone #43. A fixed concentration of tracer is added to cells expressing the NanoLuc®_MAGL fusion protein to generate a BRET reporter complex. The introduction of competing compounds results in a dose-dependent decrease in NanoBRET™ energy transfer, which allows quantification of the intracellular affinity of the target protein for the […]
HEK293A_NanoLuc_MAGL clone #43 cells were cultured in DMEM (Gibco 31966) with 10% FBS and 800 ug/ml G418. The NanoBRET assay was performed by seeding 5000 cells/well in Costar low-volume white 384-well plate in assay buffer (1% FBS in HBSS), followed by adding 50 nM final concentration of tracer and serial dilutions of test compounds. After 2 hours of incubation, Nanoluciferase substrates and extracellular inhibitors were added following the manufacturer's protocol (Promega, #N2520), and the NanoBRET signaling were quantified with the Paradigm
(In general: In BRET a luciferase serves as donor, and the signal depends on an acceptor being close.)

The mark [3] stands for this setting: Table 2, mean of three independent measurements ± SD, read-out: hMAGL IC50±SD.
[4] abbreviates: Table 2, mean of three independent measurements ± SD, read-out: mMAGL IC50±SD.

Where two headings read alike, the source gives them in different places.

Take `CN(C)c1ccc2c(c1)[Si](C)(C)c1cc(N(C)C)ccc1C21OC(=O)c2ccc(C(=O)NCCCCCOc3ccccc3CC3CC4(C3)CN(C(=O)N3CC5(COC(=O)N5)C3)C4)cc21` (stereo not drawn) [Compound 10]: the 50% inhibitory concentration (IC50) on human MAGL (Supporting Information Tables S1-S5, read-out: IC50 hMAGL) worked out at 0.187 nM; on human MAGL (setting [3]) it was 0.15 ± 0.11 nM; at mouse MAGL (Supporting Information Tables S1-S5, read-out: IC50 mMAGL) it was 0.155 nM; on mouse MAGL (setting [4]), 0.16 ± 0.09 nM; in series [2], 285 ± 240 nM. Moreover, in series [1], the “λmax Em (fluorescence emission maximum)” value came to 673 nm. In addition, in series [1], the “λmax Ex (fluorescence excitation maximum)” value worked out at 654 nm.

On to `CN(C)c1ccc2c(c1)[Si](C)(C)c1cc(N(C)C)ccc1C21OC(=O)c2ccc(C(=O)NCCCCCOc3ccccc3CC3CC4(C3)CN(C(=O)OC(C(F)(F)F)C(F)(F)F)C4)cc21` (stereo not drawn) [Compound 12], for which the concentration for half-maximal inhibition (IC50) on human MAGL (setting [3]) is 1.15 ± 0.29 nM; at mouse MAGL (setting [4]), 1.35 ± 0.3 nM; in series [2] it was > 1000 nM. For the same compound, the “λmax Em (fluorescence emission maximum)” value in series [1] is given as 673 nm. For the same compound, the “λmax Ex (fluorescence excitation maximum)” value in series [1] worked out at 654 nm.

What is called IC50 is the concentration that inhibits the measured activity by half.
